From the CheMixHub viscosity set

Assay: xn = mol fraction of the nth substance listed

CC(C)(C)O + OCC(O)CO
viscosity [mPa·s], 101.33 kPa
Details | x2 = 0.1029 | x2 = 0.1996 | x2 = 0.3009 | x2 = 0.4015 | x2 = 0.5001 | x2 = 0.5995 | x2 = 0.6993 | x2 = 0.7992 | x2 = 0.8995
308.15 K | 5.962 | 10.24 | 19.34 | 36.09 | 65.66 | 105.9 | 154.9 | 211.7 | 276
318.15 K | 4.1 | 6.761 | 12.32 | 21.85 | 37.6 | 58.03 | 83.42 | 108.5 | 132.4

COCCOCCOCCOC + ClCCl
298.15 K, 101 kPa
Details | viscosity [mPa·s]
x1 = 0.0122 | 0.436
x1 = 0.0214 | 0.451
x1 = 0.043 | 0.496
x1 = 0.0736 | 0.575
x1 = 0.1008 | 0.621
x1 = 0.159 | 0.752
x1 = 0.2062 | 0.868
x1 = 0.2482 | 0.96
x1 = 0.3121 | 1.078
x1 = 0.3987 | 1.247
x1 = 0.4705 | 1.371
x1 = 0.5389 | 1.476
x1 = 0.5879 | 1.549
x1 = 0.6389 | 1.645
x1 = 0.6782 | 1.669
x1 = 0.7651 | 1.787
x1 = 0.803 | 1.823
x1 = 0.8785 | 1.897
x1 = 0.9474 | 1.92

ClCc1ccccc1 + COCCOC
298.15 K, 101 kPa
Details | viscosity [mPa·s]
x2 = 0.135 | 1.176
x2 = 0.2599 | 1.026
x2 = 0.3758 | 0.908
x2 = 0.4836 | 0.807
x2 = 0.5841 | 0.716
x2 = 0.6781 | 0.635
x2 = 0.7662 | 0.564
x2 = 0.8489 | 0.506
x2 = 0.9267 | 0.453

COCCOCCOCCOC + CCCOC(C)=O
viscosity [mPa·s], 101.3 kPa
Details | 298.15 K | 308.15 K | 318.15 K
x1 = 0.005 | 0.558 | 0.492 | 0.442
x1 = 0.0351 | 0.589 | 0.517 | 0.465
x1 = 0.0513 | 0.607 | 0.532 | 0.476
x1 = 0.0859 | 0.643 | 0.562 | 0.503
x1 = 0.1416 | 0.709 | 0.613 | 0.544
x1 = 0.1846 | 0.757 | 0.652 | 0.577
x1 = 0.2654 | 0.857 | 0.734 | 0.647
x1 = 0.3185 | 0.922 | 0.785 | 0.683
x1 = 0.3767 | 1.009 | 0.848 | 0.733
x1 = 0.426 | 1.078 | 0.902 | 0.784
x1 = 0.5278 | 1.224 | 1.019 | 0.862
x1 = 0.5868 | 1.313 | 1.086 | 0.921
x1 = 0.627 | 1.388 | 1.141 | –
x1 = 0.6327 | – | – | 0.964
x1 = 0.69 | 1.486 | 1.22 | 1.025
x1 = 0.7402 | 1.567 | 1.282 | 1.077
x1 = 0.8031 | 1.67 | 1.365 | 1.137
x1 = 0.8451 | 1.744 | 1.427 | 1.177
x1 = 0.8711 | 1.784 | 1.472 | 1.207
x1 = 0.9467 | 1.9 | 1.542 | 1.276
x1 = 0.9582 | 1.91 | 1.552 | 1.285
x1 = 0.979 | 1.939 | 1.513 | 1.302

COCCOCCOCCO + ClC=C(Cl)Cl
298.15 K, 101.33 kPa
Details | viscosity [mPa·s]
x1 = 0.0056 | 0.538
x1 = 0.0133 | 0.554
x1 = 0.0235 | 0.574
x1 = 0.0377 | 0.603
x1 = 0.0554 | 0.645
x1 = 0.0751 | 0.694
x1 = 0.0865 | 0.725
x1 = 0.1057 | 0.778
x1 = 0.1359 | 0.869
x1 = 0.171 | 0.983
x1 = 0.2125 | 1.134
x1 = 0.2627 | 1.342
x1 = 0.286 | 1.451
x1 = 0.3201 | 1.615
x1 = 0.3511 | 1.784
x1 = 0.3864 | 1.974
x1 = 0.4202 | 2.172
x1 = 0.4548 | 2.382
x1 = 0.4947 | 2.633
x1 = 0.5322 | 2.875
x1 = 0.5817 | 3.21
x1 = 0.6349 | 3.596
x1 = 0.6824 | 3.953
x1 = 0.7308 | 4.32
x1 = 0.7791 | 4.716
x1 = 0.8178 | 5.027
x1 = 0.8689 | 5.459
x1 = 0.9106 | 5.813
x1 = 0.9455 | 6.128
x1 = 0.9667 | 6.324
x2 = 0.0177 | 6.438
